The structures appear in SMILES notation. Like-named read-outs stand apart in the source and are kept apart here.

In one series the test system is B16F10 melanoma cells. The series is described as follows: wound healing assay (cell motility). The conditions noted are these: 50 nM. The class given is cell-based, murine. The procedure: (§1) Wound healing assay was performed to evaluate the effect of BA016DD537 on motility of malignant NIH 3T3 EF cells and melanoma cell lines B16F10 and B16BL6. All the cells were incubated at 37° C. in a humidified 5% CO2 atmosphere. About 100 000-200 000 cells were seeded in a 6-well culture plate and BA016DD537, at the different concentrations, was added 24 hours later. Cells were grown for 3 days to confluence about 90-95% and small scratch-wounds (about 200 μm-1 mm width) were made with a pipette tip. Cell debris were removed, then the cultures were incubated in complete medium for 10 h in the presence of the same concentration of BA016DD537. Then, the cells were fixed for 10 min in PBS containing 3.7% formaldehyde at 4° C.

The next series has as its system NIH 3T3 EF. The series is described as follows: MTT cell proliferation assay. The conditions noted are these: 3 days, read-out: Cytotoxic effect (MTT) IC50. The class given is cell-based. The method, then: (§2) Growth studies were performed using the [3-(4,5 dimethylthiazol-2-yl)-2,5-diphenyl-2H-tetrazolium bromide] (Sigma) calorimetric assay.
(§3) About 1500 to 5000 cells, according to the cell line, were seeded in a 96-well culture plate 24 hours before adding increasing concentrations of BA016DD537 or BA016FZ539. The plate was incubated at 37° C. for 3 days. 10 μl MTT stock solution (5 mg/ml in phosphate buffer saline) was added to 90 μl of complete medium in each well, the incubation was continued for 3 h at 37° C. 100 μl of lysis buffer (10% sodium dodecyl sulfate, 1% HCl 1N; pH 4.7) was added to each well, and the plate was incubated overnight. The absorbance was determined using an Integrated EIA Management System (Labsystem) at a wavelength of 570 nm. The proliferation rates were calculated from the OD readings using the untreated cells as 100%.
(In general: Formazan colour is commonly taken as a measure of viable cells.)

In a further series the test system is NIH 3T3 EF cells. The series is described as follows: wound healing assay (cell motility). Conditions: 50 nM. The class given is cell-based. The method, then:
as §1

The next series concerns B16BL6 melanoma cells. The series is described as follows: wound healing assay (cell motility). The conditions noted are these: non cytotoxic concentration. The class given is cell-based. The method, then:
as §1

Series [1] relates to PANC-1. The series is described as follows: MTT cell proliferation assay. In kind it is cell-based, human. The procedure: as §2, §3
The next series deals with Mia Paca-2. The series is described as follows: MTT cell proliferation assay. The class given is cell-based, human. The procedure: as §2, §3
The subject of a further series is A375. The series is described as follows: MTT cell proliferation assay. The class given is cell-based, human. Conditions: A375, 3 days; read-out: Cytotoxic effect (MTT) IC50. The procedure:
as §2, §3

The subject of series [2] is 451 Lu. The series is described as follows: MTT cell proliferation assay. In kind it is cell-based, human. The conditions noted are these: 3 days, read-out: Cytotoxic effect (MTT) IC50. The method, then:
as §2, §3

Another series deals with C9. The series is described as follows: MTT cell proliferation assay. Conditions: C9, 3 days; read-out: Cytotoxic effect (MTT) IC50. The class given is cell-based, human. The method, then:
as §2, §3

In series [3] the test system is 1205 Lu. The series is described as follows: MTT cell proliferation assay. The class given is cell-based, human. Conditions: 3 days, read-out: Cytotoxic effect (MTT) IC50. The method, then: as §2, §3
The subject of series [4] is SKMEL28. The series is described as follows: MTT cell proliferation assay. In kind it is cell-based, human. The conditions noted are these: SKMEL28, 3 days; read-out: Cytotoxic effect (MTT) IC50. The method, then: as §2, §3
For the next series, the system named is HT144. The series is described as follows: MTT cell proliferation assay. The class given is cell-based, human. Conditions: HT144, 3 days; read-out: Cytotoxic effect (MTT) IC50. The procedure:
as §2, §3

In series [5] the test system is B16F10 cell pulmonary metastases. The series is described as follows: antimetastatic activity, B16F10 pulmonary metastases after i.v. injection. The class given is in vivo, mice. The method, then:
In order to assess the anti-invasive property, the effect of 2-(beta piperidino-2-ethyl)-9-hydroxyellipticinium methanesulfonate on this process has been tested.
100 μl of a B16F10 cellular suspension (4.10^5 cells) were injected using i.v. route into the retro-orbital sinus of the mice. The 2-(beta piperidino-2-ethyl)-9-hydroxyellipticinium methanesulfonate (BA016FZ539) solution was administrated i.v to mice 24 hours and 72 hours after cell injection at a dose of 5 mg/Kg (first experiment) and 7.5 mg/kg (second experiment). In control group, mice were injected iv with physiological serum. Seven days later, the mice were sacrificed, the lungs were excised and metastatic nodules were counted under a dissecting microscope.

Another series has as its system PANC-1 cell line. The series is described as follows: morphological changes under microscopic observation (phenotype reversal). In kind it is cell-based, human. The text has this: (§4) Changes in configuration and number of pancreatic cell lines were observed under microscopic observation (FIG. 5).
The test system of the next series is MIA PaCa-2 cells. The series is described as above. The class given is cell-based, human. Conditions: 4 μM for 3 days.
Source text: as §4

Another series relates to NCI-H510. The series is described as follows: MTT cell proliferation assay. In kind it is cell-based, human. Conditions: NCI-H510, viability 72 h. The method, then:
as §2, §3
(§5) The SRB protein stain assay was compared with the tetrazolium (MTT) colorimetric assay for in vitro chemosensitivity testing of various human small cell lung cancer cell lines.

The test system of a further series is NCI-H446. The series is described as follows: MTT cell proliferation assay. In kind it is cell-based, human. Conditions: NCI-H446, viability 72 h, mean +/− SEM. The procedure:
as §2, §3, §5

Another series concerns NCI-H187. The series is described as follows: MTT cell proliferation assay. The class given is cell-based, human. Conditions: NCI-H187, viability 72 h. The method, then: as §2, §3, §5
Another series deals with B16BL6. The series is described as follows: MTT cell proliferation assay. In kind it is cell-based. Conditions: B16BL6, 3 days; read-out: Cytotoxic effect (MTT) IC50. The procedure: as §2, §3
The next series relates to SK-N-MC. The series is described as follows: MTT cell proliferation assay. The conditions noted are these: 3 days, read-out: Cytotoxic effect (MTT) IC50. In kind it is cell-based. The method, then:
as §2, §3

For series [6], the system named is PANC-1. The series is described as follows: cloning assay in methylcellulose (colony formation). The class given is cell-based, human. Conditions: read-out: Inhibition of colony formation (methylcellulose) IC50. The procedure: (§6) Cells were embedded in complete culture medium supplemented with 0.8% methylcellulose (Methocel MC4000, Sigma), seeded in triplicate into 35-mm dishes (Greiner Bio-one Ref 627102, Dominique Dutscher) and incubated at 37° C. in a humidified 5% CO2 atmosphere. The number of cells seeded was 1000 cells per dish. After one to three weeks, according to cell lines, macroscopic clones were counted.

The test system of series [7] is 451 Lu. Described as above. The class given is cell-based, human. Conditions: read-out: Inhibition of colony formation (methylcellulose) IC50. The method, then: as §6
In series [8] the test system is 1205 Lu. The description is as above. The class given is cell-based, human. The conditions noted are these: read-out: Inhibition of colony formation (methylcellulose) IC50. The method, then:
as §6

Series [9] deals with SKMEL28. The description is as above. The class given is cell-based, human. The conditions noted are these: read-out: Inhibition of colony formation (methylcellulose) IC50. The method, then:
as §6

Take `Cc1c2cc[n+](CCN3CCCCC3)cc2c(C)c2c1[nH]c1ccc(O)cc12.[Cl-]` [BA016DD537, 2-(β-piperidinoethyl)-9-hydroxyellipticinium chloride]: the “inhibition of cell migration” value in the series on B16F10 melanoma cells and in the series with NIH 3T3 EF cells was “complete inhibition” in each case. In addition, the IC50 with NIH 3T3 EF was determined as 0.4 µM. Also, the “inhibition of cell motility” value in the series on B16BL6 melanoma cells is “inhibition of the B16BL6 cells motility”.

Take `CS(=O)(=O)[O-].Cc1c2cc[n+](CCN3CCCCC3)cc2c(C)c2c1[nH]c1ccc(O)cc12` [BA016FZ539, 2-(betapiperidino-2-ethyl)-9-hydroxyellipticinium methanesulfonate]: the IC50 worked out at 22 µM in the series on PANC-1 [1] (PANC-1, 3 days, read-out: Cytotoxic effect (MTT) IC50); 22 µM in the series on PANC-1 [1] (PANC-1, viability 72 h (Example 9), read-out: IC50 (μM) MTT); 7.58 µM in the series on Mia Paca-2 (MIA PaCA-2, viability 72 h, mean +/− SEM (Example 9), read-out: IC50 (μM) MTT); 7.6 µM with Mia Paca-2 (Mia Paca-2, 3 days, read-out: Cytotoxic effect (MTT) IC50); 2.9 µM in the series on A375; 4.2 µM with 451 Lu [2]. Besides, the IC50 in the series with C9 worked out at 2.1 µM; with 1205 Lu [3] it was 1.6 µM; in the series with SKMEL28 [4], 10.7 µM; in the series with HT144, 9 µM; in the series with NCI-H510, 14.8 µM; in the series with NCI-H446, 9.8 µM. Also, the IC50 in the series with NCI-H187 came out at 7.9 µM; in the series with B16BL6, 0.212 µM; with SK-N-MC, 0.84 µM; with PANC-1 [6], 4.3 µM; in the series with 451 Lu [7] it was 2 µM; in the series with 1205 Lu [8], 0.247 µM. Besides, the half-inhibitory concentration (IC50) in the series with SKMEL28 [9] came to 0.515 µM. In addition, the “Inhibition of pulmonary metastases development (% of control values)” value in series [5] (Experiment 1, 5 mg/kg/inj. i.v. J1, J3, p = 0.0904) was 21% (p = 0.0904); in series [5] (Experiment 2, 7.5 mg/kg/inj. i.v. J1, J3, p = 0.3269), 39.6% (p = 0.3269). Further, the “reversal of the transformed phenotype (cell morphology)” value with PANC-1 cell line was “not in PANC-1 cell line”; in the series on MIA PaCa-2 cells it was “reversal from the transformed phenotype (FIG. 5, A) to a normal phenotype”.

Broadly, the IC50 is the concentration at which inhibition is half-maximal.
